Source: publication PMC7293031 (Nucleic Acids Research, 2020)

Legend:
PvrA [1] = molecular target: T1, PvrA (Pseudomonas aeruginosa, UniProt Q9HZP1); experiment: ITC at […]°C; format: binding
T1 sequence (Q9HZP1 1-212): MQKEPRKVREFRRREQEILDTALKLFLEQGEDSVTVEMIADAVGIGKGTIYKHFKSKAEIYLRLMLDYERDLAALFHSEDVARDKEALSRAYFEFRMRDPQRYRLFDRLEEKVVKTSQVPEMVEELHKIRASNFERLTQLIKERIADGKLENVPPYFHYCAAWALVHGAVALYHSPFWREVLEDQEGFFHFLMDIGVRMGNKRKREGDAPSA

PvrA [2] = molecular target: T2, PvrA (Pseudomonas aeruginosa, UniProt Q9HZP1, R136A); experiment: ITC; format: binding
T2 sequence (Q9HZP1 1-212 R136A): T1 sequence (Q9HZP1 1-212)

Compound: CCCCCCCCCCCCCCCC(=O)SCCNC(=O)CCNC(=O)[C@H](O)C(C)(C)COP(=O)(O)OP(=O)(O)OC[C@H]1O[C@@H](n2cnc3c(N)ncnc32)[C@H](O)[C@@H]1OP(=O)(O)O [palmitoyl-coenzyme A]
- Kd (PvrA [1]): 31 µM
- Kd (PvrA [2]): 262 µM
